Assay results: US20090107495A1, “DEVICE FOR INHALATION OF MEDICINE” (NATIONAL INSTITUTE FOR MATERIALS SCIENCE, priority 2005, published 2009)

How the values were obtained:
Assay type in all cases: physicochemical
Solubility in ethanol = test: Solubility in ethanol
[1] = Exposure of the cotton mat to air stream similar to human inspiration, SEM picture after exposure
Protocol: The cotton mat where the matrix comprising the nano fiber of PVP in which creatine particles were adhered on the surface was formed on the surface was exposed for 1 minute in air stream having the similar degree as human inspiration (velocity is 5 L/minute). A picture of the cotton mat after exposure taken under a scanning electron microscope (the same one as mentioned already) is shown in FIG. 2.

[2] = Particle size of creatine adhered on PVP nano fiber, by scanning electron microscope; conditions: SEM, FIG. 1
Description: A commercially available electrospinning apparatus (HSP-30K-2 manufactured by Nippon Stabilizer Industry Co., Ltd.) was used, voltage (direct current of 15 kV) was applied between (the distance being 20 cm) a nozzle and an aluminum foil (manufactured by Mitsubishi Aluminum Company, Ltd.) on which a cotton mat (manufactured by Asahi Kasei Corporation) is placed attached to a collector of the apparatus and a 10 wt % ethanolic solution of polyvinylpyrrolidone (PVP) was sprayed at ambient temperature from the nozzle onto the cotton mat to form a matrix comprising a nano fiber of PVP on the surface of the cotton mat. A fiber diameter of the nano fiber of PVP constituting the matrix was measured by using a scanning electron microscope (SEM JSM-5400 manufactured by JOEL Ltd.) and found to be from 300 to 700 nm. The cotton mat where a matrix comprising a nano fiber of PVP was formed on the surface was attached onto a filter of a commercially available spray-drying apparatus (Buchi Mini Spray Drier B-290 manufactured by Nihon BUCHI K.K.) and a 1 wt % aqueous solution of creatine was spray-dried onto the matrix (outlet temperature of the nozzle: 180° C.; aspirator speed: 35%; pump speed: 5%) to give a cotton mat where a matrix comprising a nano fiber of PVP in which creatine particles were adhered on the surface was formed on the surface. As will be apparent from FIG. 1, the particle size of creatine adhered on the surface of the nano fiber of PVP was about 2 μm at the largest and many of the particles were in a size of from 100 nm to smaller than 1 μm.

[3] = spray-dried onto PVP nano fiber matrix on cotton mat

Compound	solubility in ethanol (Solubility in ethanol)	stability of nano- to micron-size particles in air ([1]; adhered on PVP nano fiber matrix, no dispersing solvent)	detachment of particles adhered on the nano fiber of PVP ([1]; air stream 5 L/minute, 1 minute, SEM, FIG. 2)	particle size of creatine adhered on the surface of the nano fiber of PVP, at the largest ([2]; spray-dried from 1 wt % aqueous solution onto PVP nano fiber matrix on cotton mat)	particle size, many of the particles, lower limit [2, 3]	particle size, many of the particles, upper limit [2, 3]
O=c1c2ccccc2[se]n1-c1ccccc1 [Ebselen, 2-phenyl-1,2-benzoisoselenazol-3-(2H)-one]	hardly soluble	–	–	–	–	–
CN(CC(=O)O)C(=N)N [creatine]	–	stably retained even in air	detached by air stream	about 2 μm	≥ 100 nm	smaller than 1 μm
